The experiment concerns the target SERCA (Mus musculus, UniProt O55143). The experiment is described as follows: SERCA-mediated 45Ca2+ store loading in permeabilized L15 fibroblasts. It counts as cell-based. On the procedure: Measurements of SERCA-mediated ^45Ca^2+ store loading and IP3-dependent release from the ER Ca^2+ store were performed on permeabilized cells in unidirectional conditions. As this approach required the use of cells forming strongly adherent monolayers, we used L15 fibroblasts stably overexpressing IP3R1, similarly to our previous work.
The L15 fibroblasts stably overexpressing IP3R1 were seeded in gelatin-coated 12-well plates (Greiner, Frickenhausen, Germany) at a density of 60,000 cells per well. Unidirectional ^45Ca^2+ flux experiments on confluent cell monolayers were performed at 30 °C after membrane permeabilization with saponin (40 µg/mL), exactly as previously described. After permeabilization, the non-mitochondrial Ca^2+ stores were loaded for 45 min in 120 mM KCl, 30 mM imidazole–HCl (pH 6.8), 5 mM MgCl2, 5 mM ATP, 0.44 mM EGTA, 10 mM NaN3, and 150 nM free ^45Ca^2+ (28 µCi mL^−1). Subsequently, efflux was initiated by incubation in efflux medium (120 mM KCl, 1 mM EGTA, 10 µM TG and 30 mM imidazole–HCl pH 6.8). The latter medium was replaced every two minutes for 18 minutes. The exact amount of Ca^2+ at each time point is calculated by summing in retrograde order the amount of radioactivity remaining in the cells at the end of the efflux and the radioactivity collected during the successive time intervals. This allows to calculate the steady-state content of the ER Ca^2+ stores (indicative for the SERCA activity, after subtraction of the loading achieved in the presence of 2 µM TG) the basal leak rate of Ca^2+ out of the stores and the IP3-induced Ca^2+ release after addition of IP3 (0.7 µM). These various parameters were measured both in control conditions or in the presence of various 2-APB analogs as indicated. To assess the effect of the 2-APB analogs on the SERCA-mediated loading of the ER Ca^2+ stores, the analogs were added during the ^45Ca^2+-loading phase as described previously. Obviously, compounds that strongly stimulated the basal Ca^2+ leak out of the stores (as P8) could not be investigated for their effect on SERCA activity (as Ca^2+ loading was already compromised by the increased leak) or on IP3-induced Ca^2+ release (as the decreased luminal Ca^2+ level impacted both the driving force for Ca^2+ release and the sensitivity of the IP3R).

“Also recorded” adds a separate entry of the source.

The record followed here is PMC7767506, “Synthesis and Characterization of Store-Operated Calcium Entry Inhibitors Active in the Submicromolar Range” (International Journal of Molecular Sciences, 2020).

Sequence of SERCA (O55143 whole entry): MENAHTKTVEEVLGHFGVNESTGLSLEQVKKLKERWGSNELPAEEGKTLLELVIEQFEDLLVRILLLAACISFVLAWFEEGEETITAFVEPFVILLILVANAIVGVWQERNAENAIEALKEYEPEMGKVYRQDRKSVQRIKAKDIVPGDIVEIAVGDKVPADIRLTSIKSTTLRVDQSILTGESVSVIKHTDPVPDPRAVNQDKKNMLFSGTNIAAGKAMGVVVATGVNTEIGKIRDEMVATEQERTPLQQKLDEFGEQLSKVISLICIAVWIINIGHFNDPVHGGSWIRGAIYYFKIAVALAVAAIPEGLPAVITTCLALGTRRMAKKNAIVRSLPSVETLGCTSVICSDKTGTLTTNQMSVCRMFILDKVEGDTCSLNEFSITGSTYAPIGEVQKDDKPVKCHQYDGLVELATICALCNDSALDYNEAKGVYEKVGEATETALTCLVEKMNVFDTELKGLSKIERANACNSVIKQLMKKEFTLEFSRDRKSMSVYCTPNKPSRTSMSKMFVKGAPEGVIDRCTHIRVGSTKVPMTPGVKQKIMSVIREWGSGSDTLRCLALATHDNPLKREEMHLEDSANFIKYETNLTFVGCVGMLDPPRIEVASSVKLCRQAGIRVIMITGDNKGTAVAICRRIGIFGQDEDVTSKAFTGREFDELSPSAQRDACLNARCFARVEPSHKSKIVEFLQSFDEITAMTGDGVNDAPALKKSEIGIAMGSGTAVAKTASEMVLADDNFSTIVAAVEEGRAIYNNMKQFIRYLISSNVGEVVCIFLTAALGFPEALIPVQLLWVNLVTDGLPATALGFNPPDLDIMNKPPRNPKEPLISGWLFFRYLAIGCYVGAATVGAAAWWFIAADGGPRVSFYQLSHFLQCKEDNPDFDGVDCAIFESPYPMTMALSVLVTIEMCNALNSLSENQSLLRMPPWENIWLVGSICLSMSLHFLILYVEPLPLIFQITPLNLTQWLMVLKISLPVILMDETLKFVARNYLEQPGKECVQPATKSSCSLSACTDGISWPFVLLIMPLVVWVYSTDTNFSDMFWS

On to “2-(dibiphenyl-4-ylboryloxy)ethanamine [P11]”, for which, under “concentrations < 1 µM”, the “effect on SERCA” value is reported as “devoid of any inhibitory activity; also recorded: without any effect”. Also, the “change of SERCA activity” value (concentrations > 30 µM) is −89 ± 1%. For the same substance, the affinity (permeabilized L15 fibroblasts) corresponds to a Ki of 7.4 ± 2 µM.
